{"source": "patent US8686016B2", "about": "“Schweinfurthins and uses thereof” (The United States of America, as represented by the …, priority 2009, dated 2014)", "key": {"[1]": {"test_system": "KR158 cells stably transfected with GFP-actin", "test": "Cell morphology / actin confocal microscopy, KR158 GFP-actin", "type": "cell-based, mouse", "conditions": "16-18 hrs treatment", "protocol": "Doxorubicin studies: KR158 stably transfected with GFP-actin were treated with 25 and 50 μM doxorubicin for 18 hrs continuously.\nCell Morphology Assays and Confocal Microscopy: To assay cytoskeleton morphology, KR158 cells, mouse primary astrocytes, KR158 clones expressing the NF1-GRD constructs, K14553 cells, and A549 were seeded to cover slips and allowed to reattach overnight. Cells were treated for 18 hours with either the indicated concentrations of SA, or the vehicle control DMSO. The cover slips were fixed in 3.7% paraformaldehyde, permeablized in 0.1% Triton-X100, and stained with Alexa Fluor 488-phalloidin (Invitrogen, Carlsbad, Calif., USA) to detect actin and cells were mounted in Prolong Antifade containing DAPI (Invitrogen) to stain nuclei. The cells were imaged on a LSM510 confocal microscope (Carl Zeiss Inc., Jena, Germany). […] KR158 GFP-actin transfected cells were seeded to 8-well chamber slides, allowed to reattach, and then treated with indicated concentrations of SA. Actin structures were monitored continuously over a 16 hr period using confocal microscopy equipped with a growth chamber (37° C., humidified atmosphere and 5% CO2). To compare SA to Rho/Rock inhibitors, KR158 GFP-actin cells were treated with SA or with the Rho pathway inhibitors Rock inhibitor Y-27632 (Sigma, St. Louis, Mo., USA), and the Rho inhibitor C3 transferase (Cytoskeleton, Inc., Denver, Colo., USA, cat# CT04) for 16 hrs, and then examined by confocal microscopy."}, "MPNST T265 cells": {"test_system": "MPNST T265 cells", "test": "XTT cell proliferation assay, T265", "type": "cell-based, human", "procedure": "(§1) XTT Cell Proliferation Assay: Cells were seeded into 96-well plates at a density of 2,000 cells/well and allowed to reattach overnight. Cells were treated with SA, synthetic analogs, camptothecin (NCI Chemotherapeutics Repository, Md., USA), or DMSO control at the indicated concentrations continuously for 48 hours followed by assay in the 96-well plate for relative viable cell number using the dye […] (XTT) and a Wallac-Victor 2 plate reader (Perkin-Elmer, Waltham, Mass., USA). Absorbance was determined at 450 nm with 650 nm as a reference reading. Primary astrocytes were additionally assayed at a 96 hour time point.\nCell lines and culture: Human MPNST cell lines (STS26T and T265) were obtained from the Pediatric Oncology Branch, NCI (Bethesda, Md., USA)."}, "NCI 60-cell line panel": {"test_system": "NCI 60-cell line panel", "test": "NCI 60 cell line assay", "type": "cell-based, human"}, "Chemical stability": {"test": "Chemical stability", "type": "physicochemical", "conditions": "compared with the free resorcinols"}, "A549 cells": {"test_system": "A549 cells", "test": "XTT cell proliferation assay, A549", "type": "cell-based, human", "conditions": "48 hours", "procedure": "as §1"}, "MPNST K16561 cells": {"test_system": "MPNST K16561 cells", "test": "XTT cell proliferation assay, K16561", "type": "cell-based, mouse", "procedure": "(§2) Establishment of NPcis MPNST cell lines: Mice were euthanized by CO2 asphyxiation and tumors were dissected. The tumor volume was measured. The tumor was then cut in half, and ½ fixed in 4% PFA. The other half was rinsed, then cut into 24 pieces of approximately equal size. Each piece was diced with a razor blade and placed in 1 well of a 24 well plate, along with 625 μL of Triple Express (Gibco, Grand Island, N.Y., USA) and 5 μL of recombinant DNAse (Roche, Indianapolis, Ind., USA). Tumors were triturated, then incubated at 37° C. in a 5% CO2 incubator for 2-5 hours, with an additional trituration halfway through incubation time. At the end of the incubation, tumor pieces were triturated again, and suspended cells were transferred to 1.5 mL eppendorf tubes. […] Both plates were monitored for cell growth, grown up to 10 cm plates, and frozen down in 10% DMSO. […]\nas §1, with “Absorbance was determined at 450 nm with 650 nm as a reference reading. Primary astrocytes were additionally assayed at a 96 hour time point.” left out"}, "MPNST K14553 cells": {"test_system": "MPNST K14553 cells", "test": "XTT cell proliferation assay, K14553", "type": "cell-based, mouse", "procedure": "as §2\nas §1, with “Absorbance was determined at 450 nm with 650 nm as a reference reading. Primary astrocytes were additionally assayed at a 96 hour time point.” left out"}}, "data": [{"molecule": "C[C@@H](N)[C@H]1CC[C@H](C(=O)Nc2ccncc2)CC1", "note": "[Y-27632, reference compound]", "values": [{"measurement": "F-actin staining / stress fibers", "setting": "[1]", "value": "dramatic loss of F-actin staining"}]}, {"molecule": "C3 transferase", "values": [{"measurement": "F-actin staining / stress fibers", "setting": "[1]", "value": "dramatic loss of F-actin staining"}]}, {"molecule": "COc1cc(/C=C/c2cc3c(c(OC)c2)O[C@]2(C)C[C@@H](O)[C@@H](O)C(C)(C)[C@H]2C3)cc(O)c1CC=C(C)C", "note": "[5′MeSE, 5′-Methylschweinfurthin E]", "values": [{"measurement": "inhibition of proliferation (percent viability versus control)", "setting": "MPNST T265 cells", "value": "sensitive"}, {"measurement": "GI50", "setting": "NCI 60-cell line panel", "value": "low nM range"}, {"measurement": "chemical stability", "setting": "Chemical stability", "value": "more stable chemically than the free resorcinols"}]}, {"molecule": "CC[C@@]1(O)C(=O)OCc2c1cc1n(c2=O)Cc2cc3ccccc3nc2-1", "note": "[camptothecin, reference compound]", "values": [{"measurement": "inhibition of proliferation (percent viability versus control)", "setting": "A549 cells", "value": "sensitive"}]}, {"molecule": "COc1cc(/C=C/c2cc(O)c(C/C=C(\\C)CCC=C(C)C)c(O)c2)cc2c1O[C@]1(C)C[C@@H](O)[C@@H](O)C(C)(C)[C@H]1C2", "note": "[SB, Schweinfurthin B]", "values": [{"measurement": "inhibition of proliferation (percent viability versus control)", "setting": "MPNST T265 cells", "value": "sensitive"}, {"measurement": "differential cytotoxicity", "setting": "NCI 60-cell line panel; NCI 60-cell line panel", "value": "significant differential cytotoxicity"}]}, {"molecule": "COc1cc(/C=C/c2cc(O)c3c(c2)C[C@@H]2C(C)(C)[C@H](O)CC[C@@]2(C)O3)cc(O)c1CC=C(C)C", "note": "[5′MeSG, 5′-Methylschweinfurthin G]", "values": [{"measurement": "inhibition of proliferation (percent viability versus control)", "setting": "MPNST T265 cells", "value": "sensitive"}, {"measurement": "GI50", "setting": "NCI 60-cell line panel", "value": "low nM range"}, {"measurement": "chemical stability", "setting": "Chemical stability", "value": "more stable chemically than the free resorcinols"}, {"measurement": "inhibition of proliferation (percent viability versus control)", "setting": "MPNST K16561 cells", "value": "sensitive"}]}, {"molecule": "COc1cccc2c1C(=O)c1c(O)c3c(c(O)c1C2=O)C[C@@](O)(C(=O)CO)C[C@@H]3O[C@H]1C[C@H](N)[C@H](O)[C@H](C)O1", "note": "[doxorubicin, reference compound]", "values": [{"measurement": "F-actin staining / stress fibers", "setting": "[1]", "value": "retained stress fibers"}]}, {"molecule": "CC(C)=CCC/C(C)=C/Cc1c(O)cc(/C=C/c2cc(O)c3c(c2)C[C@@H]2C(C)(C)[C@H](O)CC[C@@]2(C)O3)cc1O", "note": "[3dSB, 3-Deoxyschweinfurthin B]", "values": [{"measurement": "inhibition of proliferation (percent viability versus control)", "setting": "MPNST K14553 cells", "value": "sensitive"}]}]}
